From patent publication US9125352B2, “Method for maturing and synchronizing conifer somatic embryos” (SweTree Technologies AB, priority 2010, dated 2015) come the findings set out here.

The subject of data set [1] is embryogenic callus of Norway spruce, cell-lines 61:21, 19:01 and 28:05. In words: Inositol concentration series on maturation medium, embryo quality measurements (Example 4). The data set is classed as cell-based. To be noted: for root development, indicating premature germination: FIG. 2a-c. The source says:
To investigate how various inositol concentrations synchronize embryo development and affect the quality of the developing embryos, three cell-lines of embryogenic callus of Norway spruce, cell-lines 61:21, 19:01, and 28:05, were exposed to 1, week on prematuration medium, and matured for 40, days, 36, days or 33, days, respectively on maturation medium with subculturing every two weeks. Small clumps about 1, cm diameter of maturing embryos were then subcultured on maturation medium containing 0.0005, M (here denoted 0, M), 0.06, M, 0.1, M, 0.2, M, 0.25, M or […] inositol.
Twenty individual mature embryos or small plantlets were picked randomly from the plates and the following measurements were taken, for quality measurement, see FIG. 1: width of hypocotyls (1), width across the cotyledons one third of the way down of the hypocotyls (2), width across the cotyledons two third of the way down of the hypocotyls (3) and length of the hypocotyls (4), length of root (5).

The next data set deals with somatic embryo cultures. In words: Embryo culture in medium with plasmolytic or near plasmolytic concentration of sugar alcohol (general findings). The data set is classed as cell-based. The text has this:
The invention is based on a serendipitous discovery. Gene transfer to spruce somatic embryos using a particle gun was experimented with, using a special medium originally designed for use with gene transfer for embryogenic cultures, containing 0.25, M myo-inositol. The resulting plasmolysis reduces damage during penetration by the gold particles, since it relaxes the tension in the cell membranes and minimizes tearing. By mistake, the somatic embryos were left in this medium for 12, days instead of returning them to the normal proliferation medium as intended. […] Consequently, the cells are first plasmolyzed and then gradually deplasmolyzed.

Data set [2] deals with Mexican Yellow Pine, Pinus oocarpa, line 2. In words: Corresponding inositol experiments with Mexican Yellow Pine (Example 6). The data set is classed as cell-based. To be noted: inositol series as for Scots pine.
Data set [3] concerns embryos of cell-line 28:05. The data set is described as follows: Growth of germinated inositol-treated embryos in stonewool pots for three months (Example 5). The format is in vivo, Norway spruce. Here is the method:
Embryos of cell-line 28:05, treated with 0.25, M inositol and germinated in vitro as described above were grown on in stonewool in plastic pots 8×8×10, cm with standard commercial mineral nutrition in a growth chamber in continuous light at 20° C. for three months.

Data set [4] relates to embryogenic cultures of cell-line 06:28:05. The data set is described as follows: Maturation in temporary-immersion bioreactors, DKM+ABA then DKM+0.25 M inositol+ABA, then germination (Example 2). The format is cell-based, Norway spruce. The procedure:
Several experiments were performed to confirm the observations of Example 1 and to refine the novel culture method. Subsequent experiments confirm that the process of bombardment itself has no effect additional to the inclusion of 0.25, M myo-inositol in the medium. In the present experiment, embryogenic cultures of the same cell-line 06:28:05, were matured in bioreactors that enabled periodic temporary submersion in liquid DKM containing ABA. In two bioreactors, the embryos were matured for 38, days in DKM+ABA, then for 25 days in DKM+0.25, M inositol+ABA. In two control bioreactors, the cultures were maintained continuously in DKM+ABA, without the inositol treatment.
Embryos from the experimental and control reactors were placed on solid germination media in petri dishes mainly to optimize germination media. Plantlet quality was assessed after 6, days' germination as ‘bent’ or ‘not bent’. Whereas only 12, out of 134, (9%) inositol-treated embryos developed into bent plantlets, 50, out of 140, (36%) of the control embryos developed into bent plantlets. The difference was highly significant (P<0.0001) by Fisher's contingency test.

For data set [5], the system named is Norway spruce embryos, cell-lines 95:61:21 (61:21), 19:01 and 28:05. In words: Germination (root length) on germination medium after inositol treatment, without partial drying (Example 5). The format is cell-based. Here is the method: Then 15, embryos from each concentration of inositol were transferred to germination medium (same as the prematuration medium). The progress of germination was measured by root length after 11, days on germination medium. Germination was fastest for the embryos that had been treated with 0.25, M inositol FIG. 6a. The difference between the root lengths after treatment at the three highest concentrations compared with those at the three lowest concentrations was highly significant by t-test (P<0.001). The experiment was repeated with another replicate of cell-line 61:21. This time, the inositol treatment was for 25, days, the small clumps of embryos were transferred to prematuration medium for 9, days, then 10, embryos were individually planted on prematuration medium and root length was measured 29, days later. […] The length of inositol treatment was 16, days for both lines. Root length was measured 12, or 14, days according to cell-line after transfer of 20, embryos for each concentration of inositol to prematuration medium for germination. For all four experiments of Example 5, root length after treatments of 0.2, to 0.3 M inositol was compared to root length after treatments with 0, to 0.1, M inositol in a paired t-test. […] The inventors have compared on a small scale the germination of inositol-treated embryos with partially dried embryos that have been matured by standard procedures.

The test system of data set [6] is embryogenic cells, cell-line 06:28:05. In words: Comparison of inositol with other sugar alcohols and with sucrose on solid DKM+ABA maturation medium (Example 3). The format is cell-based, Norway spruce. The source says: The action of 0.25, M inositol in improving somatic embryo quality is likely to be partly osmotic, partly nutritional, with cell signaling effects also involved. The inventors tested whether 0.25, M inositol could be replaced with 0.25, M of other sugar alcohols (mannitol and sorbitol) or 0.25, M extra sucrose by spreading 1.0, to 1.5, g fresh weight of embryogenic cells, cell-line 06:28:05, on each of six plates of solid DKM+ABA maturation medium for continued growth and development over four weeks, with one subculture after 2, weeks. The cells were then subcultured onto three plates each (1.0-1.5, g cells per plate) of medium containing in addition either a) 0.25, M inositol, or b) 0.125, M mannitol and 0.125, M sorbitol, or c) 0.25, M sucrose. Control cells continued on standard medium. After three weeks, embryos of good quality were transferred to germination medium, ten embryos per petri dish, as a rough quantitative estimate of quality.

[7] abbreviates: high concentrations of inositol.
Setting [8] is: 0.25 M inositol, after 6 days' germination, out of 134 embryos.

On to `O[C@H]1[C@H](O)[C@@H](O)[C@H](O)[C@@H](O)[C@H]1O` [inositol, cis-1,2,3,5-trans-4,6-cyclohexanehexol], for which, in data set [1] (0.2-0.3 M inositol), the “effect on embryo development (summary)” value is given as “synchronized development of the embryos by inhibiting germination but not embryo development” and the “root development, indicating premature germination” value is recorded as “inhibited almost completely”. Further, the “ratio of width one third down the hypocotyl (2) to width two thirds down the hypocotyl (3)” value in data set [1] (0.2-0.3 M inositol, FIG. 5a-c) is on record as “just above unity”. Moreover, in data set [1] (cell-line 28:05, 0.25 M inositol, FIG. 4), the “coefficient of variation of width across the cotyledons (minimum)” value stood at 35%. In data set [1] (cell-line 61:21, FIG. 3), the “inositol concentration at which the coefficient of variation of hypocotyl length is at a minimum (synchrony maximal)” value is given as 0.25 M. Further, the “root development, indicating premature germination” value in data set [1] (low concentrations of inositol) is “present”. Also, in data set [1] (the other two cell-lines (19:01, 28:05), higher concentrations of inositol), the “variation in hypocotyl length” value is “reduced markedly”. Further, in the data set on somatic embryo cultures (setting [7]), the “need for partial drying before germination” value is given as “require no further partial drying before germination”. Moreover, the “quality of mature embryos formed” value with somatic embryo cultures (high concentrations of inositol (myo-inositol) in the culture media) is on record as “more robust mature embryos with improved rooting capabilities”. Besides, the “effect on maturation in the embryo cultures” value with somatic embryo cultures (plasmolytic or near plasmolytic concentration) is “induce synchronous maturation”. The “outcome compared with the Scots pine experiments” value in data set [2] is “showed the same tendencies”. Moreover, the “condition of plants after three months in stonewool” value in data set [3] (0.25 M inositol, growth chamber, continuous light, 20° C.) was “vigorous and healthy”. In addition, the “longer term effects on subsequent growth” value in data set [3] (setting [7]) is given as “no unexpected longer term effects on subsequent growth”. For the same compound, in data set [4] (setting [8]), the “embryos that developed into bent plantlets (number)” value is listed as 12 and the “embryos that developed into bent plantlets (percent)” value turned out to be 9%. Further, the “embryo appearance compared with controls” value in data set [4] (38 days DKM+ABA then 25 days DKM+0.25 M inositol+ABA, bioreactors) was “strikingly more uniform, and broader in relation to length”. The “yield of high-quality embryos relative to untreated controls” value in data set [4] (bioreactor experiment, 0.25 M inositol) is on record as “six to eight”. Moreover, the “root length after 0.2 to 0.3 M inositol compared with 0 to 0.1 M inositol” value in data set [5] (all four experiments of Example 5, paired t-test, P<0.03) was “significantly greater”. The “germination, measured by root length after 11 days on germination medium” value in data set [5] (cell-line 95:61:21, 0.25 M inositol for 17 days, 15 embryos, FIG. 6a) is reported as “fastest”. Also, in data set [5] (cell-lines 19:01 and 28:05, 16 days inositol, root length at 12 or 14 days, FIGS. 6c, 6d), the “subsequent root growth on germination medium” value is “advantages of treatment with high concentrations of inositol for subsequent root growth”. The “rooting, root length measured 29 days after planting on prematuration medium” value in data set [5] (replicate of cell-line 61:21, 0.25 M inositol for 25 days, 10 embryos, FIG. 6b) is recorded as “rooting fastest”. The “germination compared with partially dried embryos matured by standard procedures” value in data set [5] (small scale comparison) is “shoots grow faster and more vigorously”. The “embryos of good quality relative to mannitol plus sorbitol” value in data set [6] (0.25 M inositol vs 0.125 M mannitol plus 0.125 M sorbitol) is reported as “about twice”. Moreover, the “Plates with 10 high quality embryos” value in data set [6] (addition to standard medium: 0.25 M (or 0.125 M + 0.125 M), three weeks, three plates of 1.0-1.5 g cells per treatment) amounted to 6.
